Experimental data from ChEMBL document CHEMBL2169826, “Pharmacokinetic benefits of 3,4-dimethoxy substitution of a phenyl ring and design of isosteres yielding orally available cathepsin K inhibitors” (J Med Chem, 2012).
≈ marks a conversion by molar mass, not a printed value.

Legend:
Cathepsin S = Cathepsin S (Homo sapiens, UniProt P25774); test: Inhibition of human recombinant cathepsin-S using Z-Val-Val-Arg-AMC as substrate preincubated for 15 mins measured after 1 hr by QFRET assay
Cathepsin K = biological target: T1, Cathepsin K (Homo sapiens, UniProt P43235); test: Inhibition of human recombinant cathepsin-k using Z-Phe-Arg-AMC as substrate preincubated for 15 mins measured after 1 hr by QFRET assay
T1 sequence (P43235 whole entry): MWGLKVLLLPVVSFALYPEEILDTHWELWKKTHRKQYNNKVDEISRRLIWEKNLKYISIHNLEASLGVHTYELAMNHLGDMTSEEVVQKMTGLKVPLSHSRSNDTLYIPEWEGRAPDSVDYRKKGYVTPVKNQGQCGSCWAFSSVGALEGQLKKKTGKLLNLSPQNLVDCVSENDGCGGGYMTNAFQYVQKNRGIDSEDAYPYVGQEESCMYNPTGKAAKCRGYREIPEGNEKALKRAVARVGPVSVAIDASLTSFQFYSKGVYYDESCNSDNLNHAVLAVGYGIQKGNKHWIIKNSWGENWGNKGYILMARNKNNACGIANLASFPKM

Procathepsin L = Procathepsin L (Homo sapiens, UniProt P07711); test: Inhibition of human recombinant cathepsin-L using Z-Phe-Arg-AMC as substrate preincubated for 15 mins measured after 1 hr by QFRET assay
[1] = Percentage unbound in human plasma; assay type: ADME, cell-free
[2] = Metabolic stability of the compound in human liver microsomes assessed as compound turnover after 120 mins
[3] = Aqueous solubility of the compound in at pH 7.4; details: buffer
physchem = details: buffer, pH 7.4
[4] = Metabolic stability of the compound in rat liver microsomes assessed as compound turnover after 120 mins
Cathepsin B = Cathepsin B (Homo sapiens, UniProt P07858); test: Inhibition of human recombinant cathepsin-B using Z-Arg-Arg-AMC as substrate preincubated for 15 mins measured after 1 hr by QFRET assay
in vitro [5] = details: human, hepatocytes
in vitro [6] = details: rat, hepatocytes
[7] = Oral bioavailability in Alderley Park Han Wistar rat at 2 mg/kg; assay type: ADME, organism-based; details: in vivo
in vivo = details: Alderley Park Han Wistar, rat, plasma, iv, 2 mg/kg
[8] = Volume of distribution at steady state in Alderley Park Han Wistar rat at 2 mg/kg, iv and 2 mg/kg, po; assay type: ADME, organism-based; details: in vivo, read-out: Vdss
[9] = Percentage unbound in rat plasma; assay type: ADME, cell-free
Cytochrome P450 3A4 = Cytochrome P450 3A4 (Homo sapiens, UniProt P08684); test: Inhibition of CYP3A4; assay type: ADME
[10] = Inhibition of osteoclastogenesis in human bone marrow-derived stem cells assessed as reduction of pit formation by measuring TRACP5b activity after 7 days by bone TRAP assay; assay type: functional; details: 168 h
Homo sapiens = species on record: Homo sapiens; test: Selectivity ratio of IC50 for human recombinant cathepsin-K to IC50 for human recombinant cathepsin-B

Cathepsin S, sequence (P25774 whole entry): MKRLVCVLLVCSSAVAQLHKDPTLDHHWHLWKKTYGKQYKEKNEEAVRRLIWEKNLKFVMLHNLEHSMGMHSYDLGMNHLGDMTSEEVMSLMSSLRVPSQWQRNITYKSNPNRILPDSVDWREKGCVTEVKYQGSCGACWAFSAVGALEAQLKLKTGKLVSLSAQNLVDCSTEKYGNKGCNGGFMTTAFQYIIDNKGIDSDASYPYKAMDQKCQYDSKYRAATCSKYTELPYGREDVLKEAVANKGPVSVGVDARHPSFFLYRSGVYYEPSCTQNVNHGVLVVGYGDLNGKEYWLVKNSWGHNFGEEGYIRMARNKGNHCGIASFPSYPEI
Procathepsin L, sequence (P07711 whole entry): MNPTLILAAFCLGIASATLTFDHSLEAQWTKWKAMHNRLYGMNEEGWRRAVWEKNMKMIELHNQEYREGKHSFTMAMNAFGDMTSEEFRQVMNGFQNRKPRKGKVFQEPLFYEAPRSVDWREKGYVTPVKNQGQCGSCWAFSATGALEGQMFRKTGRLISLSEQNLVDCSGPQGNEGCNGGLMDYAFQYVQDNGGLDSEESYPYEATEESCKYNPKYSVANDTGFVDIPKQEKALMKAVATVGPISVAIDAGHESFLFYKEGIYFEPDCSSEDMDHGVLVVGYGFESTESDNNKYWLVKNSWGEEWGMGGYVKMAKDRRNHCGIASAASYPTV
Cytochrome P450 3A4, sequence (P08684 whole entry): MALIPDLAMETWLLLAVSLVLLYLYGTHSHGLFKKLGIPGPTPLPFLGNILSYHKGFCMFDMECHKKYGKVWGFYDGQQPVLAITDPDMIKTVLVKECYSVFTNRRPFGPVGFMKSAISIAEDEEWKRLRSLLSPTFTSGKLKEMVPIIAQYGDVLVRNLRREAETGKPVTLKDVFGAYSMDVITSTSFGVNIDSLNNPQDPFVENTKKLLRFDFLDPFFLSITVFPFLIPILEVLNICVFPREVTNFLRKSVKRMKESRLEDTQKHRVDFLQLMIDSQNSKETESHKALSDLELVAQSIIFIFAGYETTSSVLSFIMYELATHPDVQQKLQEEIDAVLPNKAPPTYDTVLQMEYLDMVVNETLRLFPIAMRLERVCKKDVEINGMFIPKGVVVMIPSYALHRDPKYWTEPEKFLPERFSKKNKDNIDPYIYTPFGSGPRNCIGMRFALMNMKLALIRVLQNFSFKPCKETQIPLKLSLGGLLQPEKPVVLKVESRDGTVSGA

Compound	IC50 (Cathepsin S) [µM]	IC50 (Cathepsin K) [µM]	IC50 (Procathepsin L) [µM]	fraction unbound [1]	microsomal CLint at 2 h [2] [µL/min/mg]	solubility [3] [µM]	logD (physchem)	microsomal CLint at 2 h [4] [µL/min/mg]	IC50 (Cathepsin B) [µM]	hepatocyte CLint (in vitro [5]) [µL/min/1e6 cells]	hepatocyte CLint (in vitro [6]) [µL/min/1e6 cells]	bioavailability [7] [%]	clearance (in vivo) [mL/min/kg]	Vd [8] [L/kg]	fraction unbound [9]	INH (Cytochrome P450 3A4) [µM]	Ratio IC50 (Homo sapiens)	IC50 [10] [µM]
CCCN1CCN(c2ccc(C(=O)NC3(C(=O)NCC#N)CCCCC3)cc2)CC1 [BALICATIB]	–	–	–	–	–	–	–	–	–	–	–	–	–	–	–	–	–	0.0266
COc1cccc2c3c([nH]c12)CCN(C(=O)[C@@H]1CCCC[C@H]1C(=O)NC1(C#N)CC1)C3	–	–	–	–	–	–	–	–	–	–	–	–	–	–	–	–	–	0.032
C[C@@H]1CN(c2ccc3c(c2)OCO3)CCN1C(=O)[C@@H]1CCCC[C@H]1C(=O)NC1(C#N)CC1	1.15	0.009	> 10	–	8.8	–	–	83	0.645	–	–	–	–	–	–	–	–	–
CS(=O)(=O)c1ccc(N2CCN(C(=O)[C@@H]3CCCC[C@H]3C(=O)NC3(C#N)CC3)CC2)cc1	2.15	0.018	> 10	> 0.5	< 2	2500 (≈ 1150 µg/mL)	–	< 2.2	2.4	–	–	16	22	–	–	–	–	–
COc1ccc(N2CCN(C(=O)[C@@H]3CCCC[C@H]3C(=O)NCC#N)CC2)cc1OC	1.09	0.006	> 10	–	2.2	–	–	6.8	1.27	–	–	–	–	–	–	–	211	–
Cc1nnc(C)c2cc(N3CCN(C(=O)[C@@H]4CCCC[C@H]4C(=O)NC4(C#N)CC4)[C@H](C)C3)ccc12	1.75	0.017	> 10	0.49	–	–	1.9	–	2.94	–	–	1.4	–	4.1	0.62	–	–	–
N#CCNC(=O)[C@@H]1CCCC[C@H]1C(=O)N1CCN(c2ccc(C#N)cc2)CC1	2.6	0.025	> 10	0.53	–	–	1.8	–	–	–	–	–	–	–	–	–	–	–
N#CCNC(=O)[C@@H]1CCCC[C@H]1C(=O)N1CCN(c2ccc(F)cc2)CC1	1.68	0.023	> 10	0.39	< 2.9	> 3700	1.9	31	0.315	–	–	–	–	–	–	–	–	–
Cc1nn(C)c2ccc(N3CCN(C(=O)[C@@H]4CCCC[C@H]4C(=O)NC4(C#N)CC4)[C@H](C)C3)cc12	1.23	0.009	> 10	0.25	–	> 1400	2.8	–	0.971	–	–	64	–	2.5	0.27	–	–	–
C[C@@H]1CN(c2ccccc2)CCN1C(=O)[C@@H]1CCCC[C@H]1C(=O)NCC#N	1.22	0.006	> 10	–	16	–	–	> 347	0.462	–	–	–	–	–	–	–	–	–
Cc1nn(C)c2cc(N3CCN(C(=O)[C@@H]4CCCC[C@H]4C(=O)NC4(C#N)CC4)[C@H](C)C3)ccc12	1.25	0.008	> 10	0.28	8.8	> 1100	2.7	15	0.766	4.7	4.6	87	19	2.5	0.3	–	–	–
COc1ccc(N2CCN(C(=O)[C@@H]3CCCC[C@H]3C(=O)NC3(C#N)CC3)[C@H](C)C2)nc1OC	1.1	0.005	> 10	0.24	4.2	> 1700	2.3	13	1.69	–	< 2	55	15	0.7	0.41	–	–	–
N#CCNC(=O)[C@@H]1CCCC[C@H]1C(=O)N1CCN(c2ccccc2)CC1	–	–	> 10	> 0.5	–	–	–	–	–	–	–	–	–	–	–	–	–	–
CC(C)(F)C[C@H](N[C@@H](c1ccc(-c2ccc(S(C)(=O)=O)cc2)cc1)C(F)(F)F)C(=O)NC1(C#N)CC1 [ODANACATIB]	–	–	–	–	–	–	–	–	–	–	–	–	–	–	–	–	–	0.1
COc1ccc(N2CCN(C(=O)[C@@H]3CCCC[C@H]3C(=O)NC3(C#N)CC3)CC2)cc1	–	0.014	> 10	0.46	< 2	> 2000	1.7	48	1.44	–	42	3.5	> 73	1.1	0.25	–	–	–

The next lines start with results.

IC50 (Cathepsin S) [µM]	IC50 (Cathepsin K) [µM]	IC50 (Procathepsin L) [µM]	fraction unbound [1]	microsomal CLint at 2 h [2] [µL/min/mg]	solubility [3] [µM]	logD (physchem)	microsomal CLint at 2 h [4] [µL/min/mg]	IC50 (Cathepsin B) [µM]	hepatocyte CLint (in vitro [5]) [µL/min/1e6 cells]	hepatocyte CLint (in vitro [6]) [µL/min/1e6 cells]	bioavailability [7] [%]	clearance (in vivo) [mL/min/kg]	Vd [8] [L/kg]	fraction unbound [9]	INH (Cytochrome P450 3A4) [µM]	Ratio IC50 (Homo sapiens)	Compound	IC50 [10] [µM]
1.05	0.006	> 10	> 0.5	7.1	390 (≈ 150 µg/mL)	1.6	77	0.399	–	–	–	–	–	–	–	–	COc1ccc(N2CCN(C(=O)[C@@H]3CCCC[C@H]3C(=O)NCC#N)CC2)cc1	–
> 11.8	0.211	> 10	–	< 2	–	–	< 2	24.9	–	–	–	–	–	–	–	–	C[C@@H]1CN(c2ccc(S(C)(=O)=O)cc2)C[C@H](C)N1C(=O)[C@@H]1CCCC[C@H]1C(=O)NC1(C#N)CC1	–
0.549	0.012	> 10	–	9.4	–	–	< 2	0.977	–	–	–	–	–	–	–	–	C[C@@H]1CN(c2ccc(S(C)(=O)=O)cc2)CCN1C(=O)[C@@H]1CCCC[C@H]1C(=O)NC1(C#N)CC1	–
0.807	0.016	> 10	0.2	9.3	600 (≈ 270 µg/mL)	2.7	–	0.603	30	9.4	21	29	2.1	0.14	–	–	Cc1noc2cc(N3CCN(C(=O)[C@@H]4CCCC[C@H]4C(=O)NC4(C#N)CC4)[C@H](C)C3)ccc12	–
–	0.008	> 10	–	5.6	–	–	149	–	–	–	–	–	–	–	–	–	COc1cccc(N2CCN(C(=O)[C@@H]3CCCC[C@H]3C(=O)NCC#N)CC2)c1	–
1.37	0.003	> 10	0.081	9	200 (≈ 92.9 µg/mL)	3.5	33	1.14	25	13	57	39	2.8	0.072	1.6	–	COc1cc(N2CCN(C(=O)[C@@H]3CCCC[C@H]3C(=O)NC3(C#N)CC3)[C@H](C)C2)ccc1C1CC1	–
3.75	0.045	> 10	–	< 2	–	–	4.9	3.51	–	–	–	–	–	–	–	–	CC1(C)CN(c2ccc(S(C)(=O)=O)cc2)CCN1C(=O)[C@@H]1CCCC[C@H]1C(=O)NC1(C#N)CC1	–
> 7.43	0.312	> 10	–	< 2	–	–	4.3	40	–	–	–	–	–	–	–	–	CC1CN(c2ccc(S(C)(=O)=O)cc2)C(C)CN1C(=O)[C@@H]1CCCC[C@H]1C(=O)NC1(C#N)CC1 (stereo partly drawn)	–
–	0.011	> 10	–	–	–	–	–	0.572	–	–	–	–	–	–	–	–	Cc1ccc(N2CCN(C(=O)[C@@H]3CCCC[C@H]3C(=O)NCC#N)CC2)cc1	–
1.51	0.059	> 10	–	< 2	–	–	< 2	3.43	–	–	–	–	–	–	–	–	C[C@H]1CN(c2ccc(S(C)(=O)=O)cc2)CCN1C(=O)[C@@H]1CCCC[C@H]1C(=O)NC1(C#N)CC1	–
2.26	0.015	> 10	> 0.28	6.9	–	–	107	1.44	–	36	0.2	19	1.1	0.28	–	–	N#CC1(NC(=O)[C@@H]2CCCC[C@H]2C(=O)N2CCN(c3ccccc3)CC2)CC1	–
1.29	0.011	> 10	> 0.5	< 2	280 (≈ 121 µg/mL)	0.67	< 5.3	1.18	–	–	–	–	–	–	–	–	CS(=O)(=O)c1ccc(N2CCN(C(=O)[C@@H]3CCCC[C@H]3C(=O)NCC#N)CC2)cc1	–
1.3	0.011	> 10	–	20	–	2.4	> 347	0.649	–	–	–	–	–	–	–	–	C[C@@H]1CN(c2ccccc2)CCN1C(=O)[C@@H]1CCCC[C@H]1C(=O)NC1(C#N)CC1	–
